Assay results published in ChEMBL document CHEMBL1158448, “Synthesis and antinociceptive activity of pyrazolyl isoxazolines and pyrazolyl isoxazoles” (2009).

Key:
Rattus norvegicus [1] = assay: Antinociceptive activity in Wistar albino rat assessed as latency in reaction time required for thermal stimulus-induced tail flicking at 30 mg/kg, po after 30 mins by analgesiometric analysis (RVb=3.33 +/- 0.21 seconds); type: functional
Rattus norvegicus [2] = assay: Antinociceptive activity in Wistar albino rat assessed as latency in reaction time required for thermal stimulus-induced tail flicking at 30 mg/kg, po after 120 mins by analgesiometric analysis (RVb=3.33 +/- 0.21 seconds); type: functional
Rattus norvegicus [3] = assay: Antinociceptive activity in Wistar albino rat assessed as latency in reaction time required for thermal stimulus-induced tail flicking at 30 mg/kg, po after 60 mins by analgesiometric analysis (RVb=3.16 +/- 0.16 seconds); type: functional
Rattus norvegicus [4] = assay: Antinociceptive activity in Wistar albino rat assessed as latency in reaction time required for thermal stimulus-induced tail flicking at 15 mg/kg, po after 120 mins by analgesiometric analysis (RVb=3.33 +/- 0.21 seconds); type: functional
Rattus norvegicus [5] = assay: Antinociceptive activity in Wistar albino rat assessed as latency in reaction time required for thermal stimulus-induced tail flicking at 15 mg/kg, po after 30 mins by analgesiometric analysis (RVb=3.33 +/- 0.21 seconds); type: functional
Rattus norvegicus [6] = assay: Antinociceptive activity in Wistar albino rat assessed as latency in reaction time required for thermal stimulus-induced tail flicking at 15 mg/kg, po after 60 mins by analgesiometric analysis (RVb=3.16 +/- 0.16 seconds); type: functional
Rattus norvegicus [7] = assay: Antinociceptive activity in Wistar albino rat assessed as latency in reaction time required for thermal stimulus-induced tail flicking at 30 mg/kg, po after 180 mins by analgesiometric analysis (RVb=3.16 +/- 0.16 seconds); type: functional
Rattus norvegicus [8] = assay: Antinociceptive activity in Wistar albino rat assessed as latency in reaction time required for thermal stimulus-induced tail flicking at 15 mg/kg, po after 180 mins by analgesiometric analysis (RVb=3.16 +/- 0.16 seconds); type: functional
Mus musculus [9] = assay: Antinociceptive activity in Swiss albino mouse assessed as protection against acetic acid-induced abdominal constriction at 15 mg/kg, po measured for 10 mins after 5 mins of acetic acid challenge relative to control; type: functional, Abdomen
Mus musculus [10] = assay: Antinociceptive activity in Swiss albino mouse assessed as protection against acetic acid-induced abdominal constriction at 30 mg/kg, po measured for 10 mins after 5 mins of acetic acid challenge relative to control; type: functional, Abdomen
Rattus norvegicus [11] = assay: Antinociceptive activity in Wistar albino rat assessed as latency in reaction time required for thermal stimulus-induced tail flicking at 5 mg/kg, po after 180 mins by analgesiometric analysis (RVb=3.16 +/- 0.16 seconds); type: functional
Rattus norvegicus [12] = assay: Antinociceptive activity in Wistar albino rat assessed as latency in reaction time required for thermal stimulus-induced tail flicking at 5 mg/kg, po after 30 mins by analgesiometric analysis (RVb=3.33 +/- 0.21 seconds); type: functional
Rattus norvegicus [13] = assay: Antinociceptive activity in Wistar albino rat assessed as latency in reaction time required for thermal stimulus-induced tail flicking at 5 mg/kg, po after 120 mins by analgesiometric analysis (RVb=3.33 +/- 0.21 seconds); type: functional
Rattus norvegicus [14] = assay: Antinociceptive activity in Wistar albino rat assessed as latency in reaction time required for thermal stimulus-induced tail flicking at 5 mg/kg, po after 60 mins by analgesiometric analysis (RVb=3.16 +/- 0.16 seconds); type: functional
Mus musculus [15] = assay: Antinociceptive activity in Swiss albino mouse assessed as protection against acetic acid-induced abdominal constriction at 100 mg/kg, po measured for 10 mins after 5 mins of acetic acid challenge relative to control; type: functional, Abdomen

Compound: COc1ccc(-c2nn(-c3ccccc3)cc2-c2cc(-c3ccccc3)on2)cc1
- Activity (Rattus norvegicus [1]): 3.33 s
- Activity (Rattus norvegicus [2]): 5.83 s
- Activity (Rattus norvegicus [3]): 6 s
- Activity (Rattus norvegicus [4]): 4 s
- Activity (Rattus norvegicus [5]): 3.16 s
- Activity (Rattus norvegicus [6]): 4.16 s
- Activity (Rattus norvegicus [7]): 5.33 s
- Activity (Rattus norvegicus [8]): 3.5 s
- Activity (Mus musculus [9]): 11.77%
- Activity (Mus musculus [10]): 30.99%

Compound: CN1C(=O)C2ON=C(c3cn(-c4ccccc4)nc3-c3ccccc3)C2C1=O (stereo not given)
- Activity (Rattus norvegicus [1]): 3.33 s
- Activity (Rattus norvegicus [2]): 5 s
- Activity (Rattus norvegicus [3]): 5.16 s
- Activity (Rattus norvegicus [4]): 3.5 s
- Activity (Rattus norvegicus [5]): 3.16 s
- Activity (Rattus norvegicus [6]): 3.5 s
- Activity (Rattus norvegicus [7]): 4.83 s
- Activity (Rattus norvegicus [8]): 3.33 s
- Activity (Mus musculus [9]): 1.17%
- Activity (Mus musculus [10]): 30.58%

Compound: CN1C(=O)C2ON=C(c3cn(-c4ccccc4)nc3-c3ccc(Cl)cc3)C2C1=O (stereo not given)
- Activity (Rattus norvegicus [1]): 3.33 s
- Activity (Rattus norvegicus [2]): 6.5 s
- Activity (Rattus norvegicus [3]): 6.66 s
- Activity (Rattus norvegicus [4]): 3.83 s
- Activity (Rattus norvegicus [5]): 3.16 s
- Activity (Rattus norvegicus [6]): 4 s
- Activity (Rattus norvegicus [7]): 5.5 s
- Activity (Rattus norvegicus [8]): 3.66 s
- Activity (Mus musculus [9]): 7.84%
- Activity (Mus musculus [10]): 23.15%

Compound: CCOC(=O)c1onc(-c2cn(-c3ccccc3)nc2-c2ccc(Cl)cc2)c1C(=O)OCC
- Activity (Rattus norvegicus [1]): 3.83 s
- Activity (Rattus norvegicus [2]): 8.33 s
- Activity (Rattus norvegicus [3]): 8.66 s
- Activity (Rattus norvegicus [4]): 4.16 s
- Activity (Rattus norvegicus [5]): 3.33 s
- Activity (Rattus norvegicus [6]): 4.33 s
- Activity (Rattus norvegicus [7]): 7.5 s
- Activity (Rattus norvegicus [8]): 4 s
- Activity (Mus musculus [9]): 17.27%
- Activity (Mus musculus [10]): 55.29%

Compound: CCOC(=O)c1onc(-c2cn(-c3ccccc3)nc2-c2ccc(Br)cc2)c1C(=O)OCC
- Activity (Rattus norvegicus [1]): 3.33 s
- Activity (Rattus norvegicus [2]): 8 s
- Activity (Rattus norvegicus [3]): 8.16 s
- Activity (Rattus norvegicus [4]): 3.83 s
- Activity (Rattus norvegicus [5]): 3.33 s
- Activity (Rattus norvegicus [6]): 4 s
- Activity (Rattus norvegicus [7]): 7.5 s
- Activity (Rattus norvegicus [8]): 3.5 s
- Activity (Mus musculus [9]): 12.94%
- Activity (Mus musculus [10]): 56.87%

Compound: CN1C(=O)C2ON=C(c3cn(-c4ccccc4)nc3-c3ccc(Br)cc3)C2C1=O (stereo not given)
- Activity (Rattus norvegicus [1]): 3.33 s
- Activity (Rattus norvegicus [2]): 7 s
- Activity (Rattus norvegicus [3]): 7.16 s
- Activity (Rattus norvegicus [4]): 3.83 s
- Activity (Rattus norvegicus [5]): 3.16 s
- Activity (Rattus norvegicus [6]): 3.83 s
- Activity (Rattus norvegicus [7]): 6.5 s
- Activity (Rattus norvegicus [8]): 3.33 s
- Activity (Mus musculus [9]): 9.81%
- Activity (Mus musculus [10]): 40.4%

Compound: O=C1C2ON=C(c3cn(-c4ccccc4)nc3-c3ccc(Cl)cc3)C2C(=O)N1c1ccccc1 (stereo not given)
- Activity (Rattus norvegicus [1]): 3.33 s
- Activity (Rattus norvegicus [2]): 6 s
- Activity (Rattus norvegicus [3]): 6.16 s
- Activity (Rattus norvegicus [4]): 4 s
- Activity (Rattus norvegicus [5]): 3.33 s
- Activity (Rattus norvegicus [6]): 4.16 s
- Activity (Rattus norvegicus [7]): 5.5 s
- Activity (Rattus norvegicus [8]): 3.66 s
- Activity (Mus musculus [9]): 23.93%
- Activity (Mus musculus [10]): 43.15%

Compound: Cc1ccc(N2C(=O)C3ON=C(c4cn(-c5ccccc5)nc4-c4ccc(Cl)cc4)C3C2=O)cc1 (stereo not given)
- Activity (Rattus norvegicus [1]): 3.33 s
- Activity (Rattus norvegicus [2]): 5.16 s
- Activity (Rattus norvegicus [3]): 5.33 s
- Activity (Rattus norvegicus [4]): 3.33 s
- Activity (Rattus norvegicus [5]): 3.33 s
- Activity (Rattus norvegicus [6]): 3.66 s
- Activity (Rattus norvegicus [7]): 4.5 s
- Activity (Rattus norvegicus [8]): 3.33 s
- Activity (Mus musculus [9]): 22.75%
- Activity (Mus musculus [10]): 42.75%

Compound: O=C1C2ON=C(c3cn(-c4ccccc4)nc3-c3ccccc3)C2C(=O)N1c1ccccc1 (stereo not given)
- Activity (Rattus norvegicus [1]): 3.33 s
- Activity (Rattus norvegicus [2]): 6.66 s
- Activity (Rattus norvegicus [3]): 6.83 s
- Activity (Rattus norvegicus [4]): 3.33 s
- Activity (Rattus norvegicus [5]): 3.16 s
- Activity (Rattus norvegicus [6]): 3.5 s
- Activity (Rattus norvegicus [7]): 5.66 s
- Activity (Rattus norvegicus [8]): 3.33 s
- Activity (Mus musculus [9]): 30.58%
- Activity (Mus musculus [10]): 47.39%

Compound: CCOc1ccc(-c2nn(-c3ccccc3)cc2C2=NOC3C(=O)N(c4ccccc4)C(=O)C23)cc1 (stereo not given)
- Activity (Rattus norvegicus [1]): 3.16 s
- Activity (Rattus norvegicus [2]): 6.16 s
- Activity (Rattus norvegicus [3]): 6.83 s
- Activity (Rattus norvegicus [4]): 3.5 s
- Activity (Rattus norvegicus [5]): 3.16 s
- Activity (Rattus norvegicus [6]): 3.16 s
- Activity (Rattus norvegicus [7]): 5.83 s
- Activity (Rattus norvegicus [8]): 3.5 s
- Activity (Mus musculus [9]): 12.16%
- Activity (Mus musculus [10]): 49.51%

Compound: CCOC(=O)c1onc(-c2cn(-c3ccccc3)nc2-c2ccc(OC)cc2)c1C(=O)OCC
- Activity (Rattus norvegicus [1]): 3.83 s
- Activity (Rattus norvegicus [2]): 7.66 s
- Activity (Rattus norvegicus [3]): 7.83 s
- Activity (Rattus norvegicus [4]): 4.33 s
- Activity (Rattus norvegicus [5]): 3.33 s
- Activity (Rattus norvegicus [6]): 5 s
- Activity (Rattus norvegicus [7]): 7 s
- Activity (Rattus norvegicus [8]): 4 s
- Activity (Mus musculus [9]): 11.39%
- Activity (Mus musculus [10]): 57.65%

Compound: CCCCc1cc(-c2cn(-c3ccccc3)nc2-c2ccc(Cl)cc2)no1
- Activity (Rattus norvegicus [1]): 3.33 s
- Activity (Rattus norvegicus [2]): 6.6 s
- Activity (Rattus norvegicus [3]): 6.83 s
- Activity (Rattus norvegicus [4]): 3.5 s
- Activity (Rattus norvegicus [5]): 3.16 s
- Activity (Rattus norvegicus [6]): 3.66 s
- Activity (Rattus norvegicus [7]): 6.16 s
- Activity (Rattus norvegicus [8]): 3.33 s
- Activity (Mus musculus [9]): 12.56%
- Activity (Mus musculus [10]): 47.09%

Compound: O=C1C2ON=C(c3cn(-c4ccccc4)nc3-c3ccc(Br)cc3)C2C(=O)N1c1ccccc1 (stereo not given)
- Activity (Rattus norvegicus [1]): 3.16 s
- Activity (Rattus norvegicus [2]): 6.83 s
- Activity (Rattus norvegicus [3]): 7 s
- Activity (Rattus norvegicus [4]): 3.66 s
- Activity (Rattus norvegicus [5]): 3.16 s
- Activity (Rattus norvegicus [6]): 3.66 s
- Activity (Rattus norvegicus [7]): 6.5 s
- Activity (Rattus norvegicus [8]): 3.33 s
- Activity (Mus musculus [9]): 2.75%
- Activity (Mus musculus [10]): 49.04%

Compound: Brc1ccc(-c2nn(-c3ccccc3)cc2-c2cc(-c3ccccc3)on2)cc1
- Activity (Rattus norvegicus [1]): 3.33 s
- Activity (Rattus norvegicus [2]): 5.66 s
- Activity (Rattus norvegicus [3]): 5.83 s
- Activity (Rattus norvegicus [4]): 3.66 s
- Activity (Rattus norvegicus [5]): 3.16 s
- Activity (Rattus norvegicus [6]): 3.23 s
- Activity (Rattus norvegicus [7]): 5.16 s
- Activity (Rattus norvegicus [8]): 3.5 s
- Activity (Mus musculus [9]): 14.52%
- Activity (Mus musculus [10]): 31.39%

Compound: CCOc1ccc(-c2nn(-c3ccccc3)cc2C2=NOC3C(=O)N(C)C(=O)C23)cc1 (stereo not given)
- Activity (Rattus norvegicus [1]): 3.83 s
- Activity (Rattus norvegicus [2]): 6 s
- Activity (Rattus norvegicus [3]): 6.16 s
- Activity (Rattus norvegicus [4]): 3.83 s
- Activity (Rattus norvegicus [5]): 3.16 s
- Activity (Rattus norvegicus [6]): 4 s
- Activity (Rattus norvegicus [7]): 5.83 s
- Activity (Rattus norvegicus [8]): 3.5 s
- Activity (Mus musculus [9]): 22.75%
- Activity (Mus musculus [10]): 47.46%

Compound: Clc1ccc(-c2nn(-c3ccccc3)cc2-c2cc(-c3ccccc3)on2)cc1
- Activity (Rattus norvegicus [1]): 3.83 s
- Activity (Rattus norvegicus [2]): 6.6 s
- Activity (Rattus norvegicus [3]): 6.83 s
- Activity (Rattus norvegicus [4]): 4 s
- Activity (Rattus norvegicus [5]): 3.16 s
- Activity (Rattus norvegicus [6]): 4.16 s
- Activity (Rattus norvegicus [7]): 6.16 s
- Activity (Rattus norvegicus [8]): 3.83 s
- Activity (Mus musculus [9]): 1.58%
- Activity (Mus musculus [10]): 49.04%

Compound: CC(C)=CCN1CC[C@]2(C)c3cc(O)ccc3C[C@H]1[C@H]2C [(+)-PENTAZOCINE]
- Activity (Rattus norvegicus [11]): 8 s
- Activity (Rattus norvegicus [12]): 9.16 s
- Activity (Rattus norvegicus [13]): 9.3 s
- Activity (Rattus norvegicus [14]): 9.33 s

Compound: CC(=O)Oc1ccccc1C(=O)O [ASPIRIN]
- Activity (Mus musculus [15]): 62.35%
